Results on 88 molecules are retold here after a melting point compilation (Tetko et al.; mined from patent text by program, amines drawn as free bases though some values may be those of a salt).

What is called melting point is the temperature, or range, at which the solid turns liquid. Molecule `CCOC(=O)c1cnoc1-c1ccc(Br)cc1` had a melting point of 47 to 48 °C.
The same measure for `COc1cc(CO)ccc1NC(C)=O`: 104 °C.
Next, `Oc1ccc(Nc2nc(NCc3ccco3)nc(Nc3ccc(Br)cc3)n2)cc1`: 37 to 39 °C; `FC(F)(F)Oc1ccc(Cn2cnc3c(Cl)ncnc32)cc1`: 115 to 116 °C.
On to `CCOc1ccccc1OCCNC(C)Cc1ccc(OC)c(S(N)(=O)=O)c1` (stereo not drawn), for which the melting point lay within 118 to 124 °C.
Next, `CC(=O)OC(COc1ccc(/C=C/C(=O)O)c(Oc2ncc(C(F)(F)F)cc2Cl)c1)COC(C)C` (stereo not drawn): 134 to 135 °C; `COc1ccc(CCSCC2CCC2)cc1`: 52 °C.
The same measure for `COc1cc(OC)nc(CCl)n1`: 40 to 42 °C; for `CCCCCCCCCOC1CCC(=O)N1` (stereo not drawn): 46 to 48 °C; for `CN(SSN(C)S(=O)(=O)c1ccccc1)S(=O)(=O)c1ccccc1`: 101 to 106 °C.
On to `COC(=O)CCCNC(=O)N1CCN(c2cc3c(cc2F)c(=O)c(C(=O)O)cn3C2CC2)CC1`, for which the melting point fell in the range of 198 to 200 °C.
The same measure for `COc1cc(C=NOCc2ccccc2)c([N+](=O)[O-])cc1OC`: 109 to 113 °C; for `CC(N=Cc1ccc(O)cc1)c1ccc([N+](=O)[O-])cc1` (single isomer, unassigned; (-)): 118 to 120 °C.
The molecule `COc1cc(O)cc(Cc2cnc(N)nc2N)c1` came in with a melting point of 246 to 248 °C.
The same measure for `CC(C)C(=O)Oc1ccc2c(c1)OCN(CCO[N+](=O)[O-])C2=O`: 70 to 71 °C; for `COc1cc2cc(C#N)c(Cl)nc2cc1OC`: 224 °C; for `COCCNCCOc1ccc(NC(=O)c2ccccc2NS(C)(=O)=O)cc1`: 164 to 165 °C.
Take `c1ccc(CSc2cc(SCc3ccccc3)c3ccc4c(SCc5ccccc5)cc(SCc5ccccc5)c5ccc2c3c54)cc1`: the melting point was 178 to 180 °C.
Next, `CCCCCC[C@H](CC(=O)OC(C)(C)C)C(=O)N1C(=O)OC[C@@H]1C(C)C`: 50 to 51 °C; `O=c1oc(-c2ccc(C(F)(F)F)cc2)nc2cc(F)ccc12`: 137 to 139 °C; `CC(=O)c1nc2ccc(OCC(F)(F)C(F)F)cc2cc1O`: 119 to 121 °C.
For the molecule `COc1cc(C(=O)N2CCN(c3cccc(C)c3Cl)CC2)cc(OC)c1OC`, the melting point was 156 to 159 °C.
The molecule `CC1(C)C=C(C(=O)CCCN2CCC(C(O)(c3ccccc3)c3ccccc3)CC2)C=CC1CCO` (stereo not drawn) showed a melting point of 135 to 137 °C.
Next, `Ic1cnc(-c2cccs2)s1`: 117 to 119 °C; `C=C(C1=C(CCC(=O)O)C(O)CC1O)c1ccccc1` (stereo not drawn): 124 to 126 °C.
The same measure for `Cc1c(C=NO)c2ccccc2n1-c1ccc(OCc2ccccc2)cc1`: 171 to 173 °C; for `O=C(O)c1cn(C2CC2)c2c(F)c(N3CC(C(=O)O)C3)c(F)cc2c1=O`: 251 to 255 °C.
As to `O=C(Oc1ccc(CS(=O)(=O)Cc2ccc(OC(=O)C3CC3)c([N+](=O)[O-])c2)cc1[N+](=O)[O-])C1CC1`, the melting point was 114 to 116 °C.
Next, `Cc1cc(=S)c2c(O)cc(O)cc2o1`: 244 to 246 °C; `COc1cc(C)nc(NC(=O)NS(=O)(=O)c2c(C)nn(C)c2OC)n1`: 183 to 184 °C; `Nc1ccc(S(=O)(=O)NCCc2ccccc2)cc1`: 114 °C.
As for `CC(=O)NCC1CN(c2ccc(N3CC4CCCN(C(=O)CO)C4C3)c(F)c2)C(=O)O1` (stereo not drawn), the melting point fell in the range of 102 to 110 °C.
The molecule `COc1ccc2nc(C3(c4ccc(S(N)(=O)=O)cc4)C=C(C(F)F)NN3)sc2c1` (stereo not drawn) yielded a melting point of 211 to 212 °C.
Next, `CN(C(=O)C(=O)c1cn(Cc2ccc(Cl)cc2)c2ccccc12)C1=CC(=O)OC1`: 205 to 208 °C; `COC(=O)c1oc2ccc(Cl)cc2c1-c1ccccc1C(F)(F)F`: 205 to 208 °C.
`COc1cc(C(C)C)ccc1C1(Br)C(=O)c2cccc(NC(C)=O)c2C1=O` (stereo not drawn): the melting point lay in the range of 143 to 145 °C.
With `N#Cc1ncc(F)cc1O`, the melting point came out at 201 °C.
Regarding `CN(CCP(O)O)c1cc(Oc2ccc(C(F)(F)F)cc2Cl)ccc1[N+](=O)[O-]`, the melting point lay within 161 to 164 °C.
Next, `O=C(CC1CC(O)CO1)NC1CCC(CCN2CCN(c3nccc4c3CCO4)CC2)CC1` (stereo not drawn): 155 °C; `CCN(CC)C(=O)CCc1nc(-c2ccccc2)cc2ccccc12`: 58 °C.
The molecule `CC(CN1CCCC1)N1c2ccccc2Sc2ccc(C(=O)Nc3ccccc3)cc21` (racemic) displayed a melting point of 163 °C.
Next, `CCOCC(=O)Nc1c(NCC(C)C)cc(C)n2nnnc12`: 182 to 185 °C; `CCS(=O)(=O)N1CCN(CCCCCCNc2cc(OC)cc3c(C)ccnc23)CC1`: 72 to 74 °C.
As for `COC(=O)C=C(C(=O)OC)N1CCC23C=CC(O)CC2Oc2c(OC)ccc(c23)C1` (stereo not drawn), the melting point lay in the range of 121 to 122 °C.
Molecule `CCOC(=O)C[C@@H](NC(=O)/C=C/S(=O)(=O)c1ccccc1)C(=O)OCC` registered a melting point of 112 to 115 °C.
`CCCCNc1nc(N)nc2c1ncn2C1C=CC(CO)C1` (stereo not drawn): the melting point was 116 to 118 °C.
The same measure for `COc1ccccc1C(Nc1cc(Cl)c(Cl)cc1Cl)C(=O)O` (stereo not drawn): 188 °C; for `CCN1C(=O)C(C)(C)C(=O)N(C)c2cc(CN(CCn3ccc4oc(C)cc4c3=O)CCn3ccc4oc(C)cc4c3=O)ccc21`: 160 to 165 °C; for `CC(C)Cc1ccc(C(C)C(=N)NO)cc1` (stereo not drawn): 75 to 78 °C.
Next, `O=C1C(=O)c2ccccc2C2=C1SCC1(CCN(CC(O)COc3ccc(F)cc3)CC1)O2` (stereo not drawn): 174 to 175 °C; `CC(=O)N(C(C)=O)c1c(C#N)cnn1-c1ncc(C(F)(F)F)cc1Cl`: 130 to 132 °C; `Cn1c(-c2cccc(Cl)c2)cc(-c2cccc(Cl)c2)nc1=O`: 178 to 181 °C.
In turn, `COc1ccc(C(=O)CC2CCCN(C)C2)cc1` (stereo not drawn) came in with a melting point of 89 to 92 °C.
Next, `Cc1cc([N+](=O)[O-])c2c(c1SC(=O)N(C)C)CCC2`: 180 °C.
Next, `COC(=O)CCC(C#N)(CCC(=O)OC)c1ccc(OC)c(OC2CCCC2)c1`: 81 to 82 °C; `O=C(CCCCN1CCCCC1)c1ccc2c(c1)Cc1cc(C(=O)CCCCN3CCCCC3)ccc1S2`: 98.5 to 99.5 °C; `CON(C(=O)C1=C(O)C(=O)N(C)C1)C(C)c1ccc(F)cc1` (stereo not drawn): 136 to 138 °C.
The same measure for `O=C1CC(Nc2cc([N+](=O)[O-])ccc2Cl)=NN1c1c(Cl)cc(Cl)cc1Cl`: 278 to 280 °C; for `CC(C)(C)c1cc(C(=O)NNC(N)=S)cc(C(C)(C)C)c1O`: 210 to 211 °C.
`CCCCCCCCCCCCCCC(=O)C(=O)NC(C=CC(=O)O)CCCC` (stereo not drawn) yielded a melting point of 65 to 67 °C.
Next, `FC(F)(F)c1cc(-c2ccc(Cl)cc2)nc2c(-c3cccnc3)cnn12`: 188 °C; `CC(CC(Sc1cc(C(C)(C)C)c(O)c(C(C)(C)C)c1)Sc1cc(C(C)(C)C)c(O)c(C(C)(C)C)c1)Sc1cc(C(C)(C)C)c(O)c(C(C)(C)C)c1` (stereo not drawn): 125 to 126 °C; `Cc1nc2cc(N)c(N)cc2n1C`: 212 °C.
The same measure for `CC(=O)c1c(C)[nH]c(-c2ccccc2C)c1NCc1ccc(Cl)cc1`: 167 to 170 °C; for `CC(C)(CCCCOCCCCc1ccc(N2CCOCC2)cc1)NCC(O)c1ccc(O)c(NS(C)(=O)=O)c1` (stereo not drawn): 165 to 167 °C; for `CCCCCCC(C)(C)c1cc(OCc2ccccc2)c2c(c1)OC(C)(C)CC2=O`: 52 to 52.5 °C.
The same measure for `Cc1cc2c(cc1[N+](=O)[O-])C(=O)CC(C)O2` (stereo not drawn): 110 to 113 °C.
`C=CC(=O)NCc1ccc(CBr)cc1` showed a melting point of 167 °C.
Take `COc1ccc(-c2cnc3nccn3c2)cc1OC1CC2CCC1C2` (stereo not drawn): the melting point was determined as 130 °C.
The same measure for `CCOC(=O)c1cn(C2CC2)c2nc(N3CCC(NC(C)=O)C3)c(F)cc2c1=O` (stereo not drawn): 246 to 248 °C; for `CC(=O)SCC(Cc1ccccc1)C(=O)Nc1ccc(C(N)=O)cc1` (stereo not drawn): 195 to 197 °C; for `CS(=O)(=O)NCCCCn1c(CCO)nc2c(N)nc3cccnc3c21`: 194 to 195 °C.
In turn, `CCOC(=O)c1[nH]cc2c1NC1=C(C(=O)CCC1)C2c1cnc(Sc2nc3ccccc3[nH]2)s1` (stereo not drawn) gave a melting point of 194 °C.
Turning to `CN(C)c1ccc(-c2nnc(-c3ccccc3)o2)cc1`, the melting point lay within 135 to 140 °C.
The same measure for `N#Cc1ccc(-c2ccc(F)cc2)nc1`: 149 °C; for `O=C1CCC(N2C(=O)c3cccc(OCc4ccc(Cl)c(Cl)c4)c3C2=O)C(=O)N1` (stereo not drawn): 245 to 247 °C.
Consider `CCOC(=O)CCCCC1CC(n2c3ccccc3c3ccccc32)c2ccccc2N1C(=O)c1ccc(OC)cc1` (stereo not drawn), for which the melting point was in the range of 167 to 168 °C.
Next, `CCc1nc2c(OCc3ccc(OC)cc3)cccc2[nH]1`: 73.8 to 77.9 °C; `CCCC[C@H](NC(=O)[C@H](CC(C)C)NC(=O)c1ccc(F)c(F)c1F)C(=O)CSCc1ccco1`: 101 to 102 °C.
Molecule `C#Cc1cccc(OCC2=CC=C(CO)SS2)c1` returned a melting point of 70.5 to 71.5 °C.
The same measure for `CCN(CC)C(=O)C(C)Cc1nc(-c2ccccc2)nc2ccccc12` (stereo not drawn): 93.5 °C.
The same measure for `Cc1cn(-c2cc3c(cc2C(F)(F)F)[nH]c(=O)c2n[nH]c(=O)n23)c(C)n1`: more than 330 °C; for `CN(C)c1cncc(C#N)c1`: 104 °C.
Molecule `CCC(C)(C)N=NC(C)(C#N)CCC(=O)O` (stereo not drawn) showed a melting point of 60 to 62 °C.
Take `COc1ccccc1OCC1NC(C(=O)O)CS1` (stereo not drawn): the melting point is 149 to 150 °C.
`CCCc1nn(C)c2c(=O)n(CCCOc3ccc(SC(C)(C)C(=O)OCC)cc3)c(C)nc12` returned a melting point of 52 to 54 °C.
`Cc1nc2c3c(c(C(=O)NC4CC4)cc2n1C)CCC(c1ccccc1)O3` (stereo not drawn) showed a melting point of 312 to 313 °C.
`CC1(C)Oc2ccc(C#N)cc2C(C(=O)Nc2ccccc2)=C1O` displayed a melting point of 167 to 170 °C.
